Reference: patent US6906049B1, “Contraceptive medicine based on a progestational agent and an oestrogen and preparation method” (Laboratoire Theramex, priority 1996, dated 2005)

Key:
[1] = tested on: female volunteers in the period of ovarian activity; assay: Randomized double-blind study of the anti-ovulatory action of the oestradiol/nomegestrol acetate combination in 38 female volunteers; assay type: in vivo, women; conditions: day 1-21, m ± sem
Description: The anti-ovulatory action of the oestradiol/nomegestrol acetate combination was evaluated in a randomized double-blind study on 38 female volunteers, in good health, aged 18 to 35, in the period of ovarian activity, for whom it was checked beforehand, by means of an assay of the progesterone in the plasma and the establishment of a temperature curve, that they had ovulatory menstrual cycles.
The women were monitored for two consecutive cycles: the first was a control cycle without treatment; during the following cycle (cycle under treatment), they received a hormonal treatment administered orally daily from the 1st to the 21st day of the cycle.
According to the randomization: • 9 women received 1.5 mg of oestradiol+0.625 mg of nomegestrol acetate (group A), • 10 others received 1.5 mg of oestradiol+1.25 mg of nomegestrol acetate (group B), • another 10 received 1.5 mg of oestradiol+2.5 mg of nomegestrol acetate (group C), • and the other 9 were treated with nomegestrol acetate alone at a dose of.2.5 mg (group D).
During the control cycle, the hormonal parameters were not significantively different among the four groups. Table I indicates the mean concentrations observed for each hormonal parameter in the course of the 21 days of treatment.

ovulation [2] = assay: Inhibition of ovulation in women (literature data); assay type: in vivo; conditions: as defined by Neumann (1977)
Description: The oestrogenic component involves oestradiol or an ester or an ether thereof, such as, for example, the valerate, benzoate, enanthate, etc., the doses used being calculated as oestradiol equivalents. The doses range from 0.3 mg to 3 mg per day with a preference for a range from 0.5 mg to 2 mg per day. According to the literature data (Hirvonen, 1995), a dose of 4 mg is needed to ensure the inhibition of ovulation, but they correspond to the doses used to compensate for hypooestrogenic states. For example, in menopausal women, the dose recommended to compensate for hypooestrogenic states is about 1.5 mg.
(§1) The ratio of the ovulation-inhibiting activity in women (in mg/day) to the endometrial luteinizing |activity (in mg/cycle) as defined by Neumann (1977) is thus in the order of 0.2, i.e. close to those of cyproterone acetate and chlormadinone acetate; this indicates a strong central activity (Oettel et al., 1999). In this sense, it clearly differs from dienogest, whose activity is disequilibrated to the benefit of the peripheral activity.

ovulation [3] = conditions: cited from earlier work
endometrium = assay: Clinical trial similar to the Kaufmann's trial (endometrial conversion); assay type: in vivo, women
Excerpt: as §1

women = assay: Another clinical trial, same methodology, with the progestative agent alone; assay type: in vivo; conditions: NOMAC 1.25 mg alone (n=3), treated cycle
Description: This synergistic effect of oestradiol is confirmed by comparing the results of this study with those of another clinical trial performed according to the same methodology, but with the progestative agent alone. […] On the other hand, the addition of oestradiol lowers the plasmatic levels of oestradiol, assayed 24 hours after taking the medicinal product, by about […]; this parameter is a good reflection of the endogenous secretion of the ovaries (Table II).

Compound | LH mean concentration in the plasma ([1]; Group D (n=9): 2.5 mg NOMAC alone oral daily) | FSH mean concentration in the plasma ([1]; Group D: 2.5 mg NOMAC alone) | Oestradiol mean concentration in the plasma ([1]; Group D: 2.5 mg NOMAC alone) | Progesterone mean concentration in the plasma ([1]; Group D: 2.5 mg NOMAC alone) | Ratio of ovulation-inhibiting activity (mg/day) to endometrial luteinizing activity (mg/cycle) (ovulation [2]) | Effect on ovulation (ovulation [3]; given alone at 1.25 mg per day, oestradiol level in plasma increases) | Daily dose giving inhibition of ovulation and of follicle development in women (ovulation [3]; nomegestrol acetate alone, Bazin et al., 1987) | Daily dose giving endometrial conversion (endometrium; daily dose) | Dose for the entire cycle giving endometrial conversion (endometrium; entire cycle) | FSH mean concentration in the plasma (women) | LH mean concentration in the plasma (women) | Oestradiol mean concentration in the plasma (women) | Dose needed to ensure the inhibition of ovulation (ovulation [3]; oestradiol alone, Hirvonen, 1995)
CC(=O)O[C@]1(C(C)=O)CC[C@H]2[C@@H]3C=C(C)C4=CC(=O)CC[C@@H]4[C@H]3CC[C@@]21C [NOMAC, nomegestrol acetate] | 5.6 ± 0.62 mIU/ml | 7.6 ± 0.28 mIU/ml | 31.9 ± 3.91 pg/mL | 0.07 ± 0.014 ng/mL | ~0.2 | abolishes ovulation | 2.5 mg | 1 mg | 10 mg | 3.3 mIU/ml | 3.1 mIU/ml | 158.8 pg/mL | 
C[C@]12CC[C@@H]3c4ccc(O)cc4CC[C@H]3[C@@H]1CC[C@@H]2O [oestradiol, 17beta-oestradiol] |  |  |  |  |  |  |  |  |  |  |  |  | 4 mg
